pKi: −log10 of the molar value.
Assay: Inhibition of Plasmodium falciparum recombinant carbonic anhydrase

`NS(=O)(=O)c1ccccc1NS(=O)(=O)c1c(F)c(F)c(F)c(F)c1F` and `NS(=O)(=O)c1nnc(NS(=O)(=O)c2c(F)c(F)c(F)c(F)c2F)s1` are within 0.2 log units of each other in pKi: 5.51 for the first, 5.59 for the second.

Going from `NS(=O)(=O)c1nnc(NS(=O)(=O)C(F)(F)C(F)(F)C(F)(F)C(F)(F)C(F)(F)C(F)(F)C(F)(F)C(F)(F)F)s1` to `NS(=O)(=O)c1nnc(NC(=O)c2c(F)c(F)c(F)c(F)c2F)s1`, the pKi falls from 6.72 to 5.46 (1.26 log units). The first binds more tightly here.

Compared with `NS(=O)(=O)c1ccc(NC(=S)NC(=O)Nc2ccc(Cl)c(Cl)c2)cc1`, `NS(=O)(=O)c1ccc(NC(=O)Nc2ccc(Cl)c(Cl)c2)cc1` is 1.49 log units lower in pKi: 6.74 for the first, 5.25 for the second. The first binds more tightly here.

Going from `NS(=O)(=O)c1ccc(CCNC(=O)c2cc3ccccc3oc2=O)cc1` to `NS(=O)(=O)c1ccc(CNC(=O)c2cc3ccccc3oc2=O)cc1`, the pKi rises from 4.88 to 5.30 (0.42 log units). The second binds more tightly here.

`NS(=O)(=O)c1ccc(NC(=O)c2cc3ccccc3oc2=O)cc1` and `NS(=O)(=O)c1ccc(NNC(=O)c2cc3ccccc3oc2=O)cc1` are within 0.2 log units of each other in pKi: 5.24 for the first, 5.39 for the second.

Compared with `COC(=O)NS(=O)(=O)c1ccc(NC(=S)Nc2ccc(S(N)(=O)=O)cc2)cc1`, `NS(=O)(=O)c1ccc(NC(=S)NC(=O)Nc2ccc(Cl)cc2)cc1` is 1.15 log units higher in pKi: 5.34 for the first, 6.49 for the second.

Going from `COc1ccc2oc(=O)cc(CC(=O)Nc3ccccc3S(N)(=O)=O)c2c1` to `COc1ccc2oc(=O)cc(CC(=O)Nc3cccc(S(N)(=O)=O)c3)c2c1`, the pKi falls from 5.84 to 5.34 (0.50 log units).

`COc1ccc2oc(=O)cc(CC(=O)NNc3ccc(S(N)(=O)=O)cc3)c2c1` and `COc1ccc2oc(=O)cc(CC(=O)c3cc(C(F)(F)F)c(S(N)(=O)=O)cc3S(N)(=O)=O)c2c1` are within 0.2 log units of each other in pKi: 5.46 for the first, 5.60 for the second.

`NS(=O)(=O)c1ccc(/N=C/c2ccc(Br)c3ccccc23)cc1` and `NS(=O)(=O)c1ccc(CNC(=O)N(c2ccccc2)c2ccccc2)cc1` are within 0.2 log units of each other in pKi: 5.38 for the first, 5.22 for the second.

First: NS(=O)(=O)c1ccc(NC(=S)NC(=O)Nc2ccc(CC(Cl)Cl)cc2)cc1
Second: CC(Cl)(Cl)c1ccc(NC(=O)NC(=S)Nc2ccc(S(N)(=O)=O)cc2)cc1
The pKi of the first is 0.22 log units lower: 6.12 for the first, 6.34 for the second.

`Cc1cc(Cl)cc(C)c1NC(=O)NC(=S)Nc1ccc(S(N)(=O)=O)cc1` and `Cc1cc(NC(=O)NC(=S)Nc2ccc(S(N)(=O)=O)cc2)c(Cl)c(C)c1Cl` are within 0.2 log units of each other in pKi: 6.22 for the first, 6.29 for the second.

`CCc1c(Cl)ccc(NC(=O)NC(=S)Nc2ccc(S(N)(=O)=O)cc2)c1Cl` and `Cc1ccc(NC(=O)NC(=S)Nc2ccc(S(N)(=O)=O)cc2)s1` are within 0.2 log units of each other in pKi: 6.33 for the first, 6.30 for the second.

`NS(=O)(=O)c1ccc(NC(=S)NC(=O)Nc2cccc(F)c2)cc1` and `Cc1cc(F)c(C)c(NC(=O)NC(=S)Nc2ccc(S(N)(=O)=O)cc2)c1` are within 0.2 log units of each other in pKi: 6.37 for the first, 6.29 for the second.

Compared with `Cc1c(NC(=O)NC(=S)Nc2ccc(S(N)(=O)=O)cc2)cn2ncccc12`, `NC(=S)Nc1ccc(S(N)(=O)=O)cc1` is 0.68 log units lower in pKi: 6.36 for the first, 5.68 for the second.

Compared with `CC(C)(O)Nc1ccc(S(N)(=O)=O)cc1`, `CC(F)(F)Nc1ccc(S(N)(=O)=O)cc1` is 0.48 log units higher in pKi: 5.65 for the first, 6.13 for the second.

`NS(=O)(=O)c1ccc(Nc2cscn2)cc1` and `NS(=O)(=O)c1ccc(Nc2ncsc2Cl)cc1` are within 0.2 log units of each other in pKi: 6.63 for the first, 6.79 for the second.

`NS(=O)(=O)c1ccc(Nc2nocc2Cl)cc1` and `NS(=O)(=O)c1ccc(Nc2ncc(Cl)s2)cc1` are the same in pKi: 6.79 for the first, 6.79 for the second.

Going from `Cc1cc(C)cc(N(C(=O)Nc2ccccc2S(N)(=O)=O)c2ccccc2)c1` to `NS(=O)(=O)c1ccccc1NC(=O)N(c1ccccc1)c1cccc(Cl)c1`, the pKi rises from 5.39 to 5.78 (0.39 log units).

`Cc1ccc(C)c(N(C(=O)Nc2ccccc2S(N)(=O)=O)c2ccccc2)c1F` and `NS(=O)(=O)c1ccccc1NC(=O)N(c1ccccc1)c1ccc(F)cc1` are within 0.2 log units of each other in pKi: 5.48 for the first, 5.65 for the second.

First: COc1ccc2cncc(CC(=O)Nc3ccccc3S(N)(=O)=O)c2c1
Second: COc1cc(CC(=O)Nc2ccccc2S(N)(=O)=O)c2ccccc2c1Cl
The pKi of the first is 0.20 log units higher: 5.57 for the first, 5.37 for the second.

First: NS(=O)(=O)c1nnc(NC(=S)NC(=O)Nc2ccccc2)s1
Second: NS(=O)(=O)c1ccccc1NC(=O)N(c1ccccc1)c1ccccc1
The pKi of the first is 0.53 log units lower: 5.17 for the first, 5.70 for the second. The second binds more tightly here.

First: NS(=O)(=O)c1cc(S(N)(=O)=O)c(C(F)(F)F)cc1NC(=O)c1cc2ccccc2oc1=O
Second: NS(=O)(=O)c1ccccc1NC(=O)c1cc2ccccc2oc1=O
The pKi of the first is 0.31 log units higher: 5.04 for the first, 4.73 for the second.

Going from `CCN(CC)C(=S)SNc1ccc(S(N)(=O)=O)cc1` to `CCN(CC)C(=S)SNCc1ccc(S(N)(=O)=O)cc1`, the pKi falls from 5.52 to 5.08 (0.44 log units). The first binds more tightly here.

First: NS(=O)(=O)c1ccc(NS(=O)(=O)c2ccc(NC(=O)N(c3ccccc3)c3ccccc3)cc2)cc1
Second: NS(=O)(=O)c1ccc(NC(=O)c2ccc(S(N)(=O)=O)cc2)cc1
The pKi of the first is 0.74 log units lower: 4.78 for the first, 5.52 for the second. The second binds more tightly here.

`Cn1nc(S(N)(=O)=O)s/c1=N/C(=O)c1c(F)c(F)c(F)c(F)c1F` showed a pKi of 5.16.
